Blank lines part the entries; values can stand above or below the compound they belong to.
Experiments:
[1] = tested on: advanced ER+/AR+ breast cancer; design: method as in NCT00755885; conditions: ref NCT00755885, cited from earlier work
AR+ TNBC = tested on: AR+ TNBC; design: method as in PMID 29373071, PMID 25944485; conditions: cited from earlier work
BT549 = test: proliferation assay, trypan blue exclusion; assay type: cell-based; conditions: BT549 (lacking Rb), 96 h
Description: (§1) A–F Breast cancer cells were treated with either vehicle or (R)-9b for 48 h; cells were harvested and processed for cell cycle analysis using propidium iodide staining, followed by flow cytometry. G BT549 and H MDA-MB-468 cells were treated with varying drug concentrations of palbociclib or (R)-9b for 96 h and the cell viability assessed using trypan blue exclusion method. I BT549, and J MDA-MB-468 cells were treated with 1 µM palbociclib or (R)-9b for 48 h and subjected to cell cycle analysis using propidium iodide staining, followed by flow-cytometry. Palbociclib-resistant MDA-MB-231 (K) and HCC-1395 (L) were generated and treated with varying drug concentrations of palbociclib or (R)-9b for 96 h and the cell viability assessed using trypan blue exclusion method.
(§2) For proliferation assay, 5 × 10^4 cells were plated in 6-well plate and treated with either vehicle (DMSO) or varying concentrations of (R)-9b or palbociclib in complete media for 96 h and number of viable cells were counted by trypan blue exclusion assay. Breast cancer cell lines were treated with vehicle or varying concentrations of (R)-9b for 72 h. The cells were harvested, washed 2 times with PBS and incubated with 3 ul of Annexin V-FITC antibody according to the manufacturers protocol (BD Biosciences). Five µl Propidium iodide was used to stain necrotic cells. The cells were acquired using the BD FACSCalibur machine (BD Biosciences) and data was analyzed using FlowJo software. Cell cycle analysis was performed as mentioned earlier. Briefly, vehicle or (R)-9b (48 h) treated cells were harvested by trypsinization, washed 2 times with PBS, and fixed using chilled 70% Ethanol for 1 h, followed by 2 washes with PBS. The cell pellets were treated with 50 µl RNase A (100 µg/ml; Sigma) for 15 min at 37 °C and Propidium Iodide (PI; 50 µg/ml, Sigma) was added to these cells, followed by acquisition using BD FACS Canto-II or FACSCalibur machines. The data were analyzed using FlowJo software.

MDA-MB-468 = test: proliferation assay, trypan blue exclusion; assay type: cell-based; conditions: MDA-MB-468 (lacking Rb), 96 h
Description: as §1, §2

MDA-MB-468 xenografts = test: MDA-MB-468 xenograft in mammary fat pad; assay type: in vivo, female SCID mice
Description: To validate these findings in breast tumors, MDA-MB-468 cells were injected in female SCID mice. Once palpable tumors were formed (5 weeks), mice were treated with vehicle (6% captisol), palbociclib (80 mg/Kg of body weight), (R)-9b (36 mg/Kg of body weight) by oral route, or (R)-9b (24 mg/Kg of body weight) by subcutaneous injection, five times a week.
Fig. 7 ACK1 inhibitor overcomes palbociclib-resistant breast cancer growth and metastasis. A 3 × 10^6 MDA-MB-468 cells were injected in the 4th inguinal mammary fat pad of female SCID mice. Once the tumors were palpable, the mice were treated with either vehicle (Captisol; n = 7), Palbociclib at 80 mg/kg (n = 6), or (R)-9b at 36 mg/Kg (n = 6) orally. In addition, mice were injected with (R)-9b at 24 mg/Kg (n = 7) subcutaneously. Mice were treated five times a week, for 22 days. B, C The tumors were harvested and photographed, and the weights were recorded. D Vehicle or (R)-9b treated breast cancer cells were subjected to ChIP using pY88-H4 antibody, followed by qPCR for CXCR4 gene. E CXCR4 mRNA transcript levels in vehicle or (R)-9b treated MDA-MB-231 cells. 18S rRNA was used as housekeeping gene. F MDA-MB-231 cells were transfected with ACK1 or scrambled siRNA, followed by qRT-PCR to determine CXCR4 mRNA transcript levels. G Representative lung metastatic deposits of MDA-MB-231 cells injected via the tail veins in female SCID mice, treated with either vehicle or 24 mg/Kg (R)-9b orally. H Graphical quantitation of lung metastatic deposit. I and J 5 × 10^5 luciferase expressing 4T1 cells were injected into 4th inguinal mammary fat pad of female BALB/c mice. Once the tumors were palpable, mice were treated with either vehicle or (R)-9b at 24 mg/Kg (n = 3, each) subcutaneously for 2 weeks, five times a week. The metastases were assessed using IVIS. Data are represented as the mean ± SEM. *p < 0.05; **p < 0.01; ***p < 0.001. For (A, C–F, I), p values were calculated using unpaired two-tailed Student’s t test.
All animal experiments were performed using the standards for humane care in accordance with the NIH Guide for the Care and Use of Laboratory Animals. Mice were obtained from Charles River Laboratories and experiments were performed according to IACUC protocols (IACUC # 20180259) approved in writing by Washington University in St. Louis Department of Comparative Medicine (DCM). 1.5 × 10^6 Cal-148 or MCF7, or 3 × 10^6 MDA-MB-468 cells were suspended in 200 µl of PBS with 50% matrigel (BD Biosciences) and were implanted subcutaneously into the mammary fat pad (between fourth and fifth inguinal) of female SCID C.B17 mice (n = 8 per group). Once the tumors were palpable (about 4–5 weeks), mice were randomly chosen for subcutaneous injection (Cal-148 and MCF7; 24 mg/Kg body weight) or given oral gavage with (R)-9b (MCF7; 36 mg/Kg body weight) resuspended in 6% Captisol (or 6% Captisol in PBS as vehicle), five times a week, for 4–5 weeks. Tumor volumes were measured twice a week using calipers. At the end of the study, all mice were humanely euthanized, tumors extracted and weighed.

[2] = human, plasma
in vitro [3] = conditions: human
in vitro [4] = conditions: rat

SMILES: C[C@]12CC[C@H](O)CC1=CC[C@@H]1[C@@H]2CC[C@]2(C)C(c3cccnc3)=CC[C@@H]12 [abiraterone]
- clinical benefit rate ([1]; in 24 weeks): 20%
- median progression-free survival duration [1]: 2.8 months

SMILES: CNC(=O)c1ccc(N2C(=S)N(c3ccc(C#N)c(C(F)(F)F)c3)C(=O)C2(C)C)cc1F [enzalutamide]
- clinical benefit rate (AR+ TNBC; at 16 weeks): 33%
- median progression-free survival duration (AR+ TNBC): 3.3 months

- weights of the mice (MDA-MB-468 xenografts; palbociclib 80 mg/Kg, (R)-9b 36 mg/Kg oral or 24 mg/Kg subcutaneous): modest decrease in weights
SMILES: CC(=O)c1c(C)c2cnc(Nc3ccc(N4CCNCC4)cn3)nc2n(C2CCCC2)c1=O [palbociclib, reference compound]
- sensitivity (cell proliferation) (BT549): resistant
- sensitivity (cell proliferation) (MDA-MB-468): resistant
- xenograft tumor growth (MDA-MB-468 xenografts; palbociclib 80 mg/Kg oral, (R)-9b 36 mg/Kg oral or 24 mg/Kg subcutaneous, five times a week, 3 weeks): robust tumor growth
- histology (H&E) of heart, spleen, kidneys and livers (MDA-MB-468 xenografts; palbociclib 80 mg/Kg, (R)-9b oral and subcutaneous): did not reveal histological abnormalities

- % Bound [2]: 98.53%
- % Unbound [2]: 1.47%
- recovery (in vitro [3]; % Recovery): 92.3%
- fraction unbound (in vitro [3]; plasma, % Bound): 0.0147
- remaining at 6 h (in vitro [3]; plasma, % Remaining at 6 hr): 97.8%
- fraction unbound (in vitro [3]; plasma, % Unbound): 0.0147
- recovery (in vitro [4]; % Recovery): 86.7%
- fraction unbound at 6 h (in vitro [4]; plasma, % Bound): 0.0069
- remaining at 6 h (in vitro [4]; plasma, % Remaining at 6 hr): 88.2%
- fraction unbound at 6 h (in vitro [4]; plasma, % Unbound): 0.0069
SMILES: CC(=O)CC(c1ccccc1)c1c(O)c2ccccc2oc1=O (stereo not shown) [warfarin]

Source: PMC10348910, “Epigenetic reprogramming of cell cycle genes by ACK1 promotes breast cancer resistance to CDK4/6 inhibitor” (Oncogene, 2023)
